What follows are molecules tested against Peptidyl-prolyl cis-trans isomerase FKBP1A (Homo sapiens, UniProt P62942) (assay: Inhibition of FKBP12 rotamase activity).
Chain of Peptidyl-prolyl cis-trans isomerase FKBP1A (P62942 whole entry): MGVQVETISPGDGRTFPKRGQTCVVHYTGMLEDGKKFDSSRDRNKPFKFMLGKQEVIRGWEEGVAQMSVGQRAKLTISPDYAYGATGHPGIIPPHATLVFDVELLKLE

Row | Structure (SMILES) | Ki [nM]
1 | CCc1ccc(S(=O)(=O)N2C3CCCC2C2c4c(cc(OC)cc4OC)CCN2C3=O)cc1 (centres undefined) | 266
2 | COc1ccc2c(c1)CCN1C(=O)C3CCCC(C21)N3S(=O)(=O)Nc1cc(F)c(F)c(F)c1 (centres undefined) | 236
3 | COc1ccc2c(c1)CCN1C(=O)C3CCCC(C21)N3S(=O)(=O)Nc1ccc(Cl)nc1 (centres undefined) | 360
4 | COc1cc2c(c(OC)c1)C1C3CCCC(C(=O)N1CC2)N3C(=O)N(c1ccccc1C)c1ccccc1C (centres undefined) | 330
5 | COc1cc2c(c(OC)c1)C1C3CCCC(C(=O)N1CC2)N3C(=O)C(=O)c1ccccc1Cl (centres undefined) | 583
6 | COc1cc(C(=O)C(=O)N2C3CCCC2C2c4cc(F)ccc4CCN2C3=O)cc(OC)c1OC (centres undefined) | 225
7 | COc1cc2c(c(OC)c1)C1C3CCCC(C(=O)N1CC2)N3S(=O)(=O)c1ccccc1 (centres undefined) | 244
8 | COc1ccc2c(c1)CCN1C(=O)C3CCCC(C21)N3S(=O)(=O)Nc1ccc(N2CCOCC2)nc1 (centres undefined) | 591
9 | COc1cc2c(c(OC)c1)C1C3CCCC(C(=O)N1CC2)N3C(=O)C(=O)c1cc(C(C)(C)C)c(O)c(C(C)(C)C)c1 (centres undefined) | 20800
10 | CCN(CC)c1ccc(C(=O)C(=O)N2C3CCCC2C2c4c(cc(OC)cc4OC)CCN2C3=O)cc1 (centres undefined) | 1000
11 | COc1cc2c(c(OC)c1)C1C3CCCC(C(=O)N1CC2)N3C(=O)Cc1ccc(Cl)cc1 (centres undefined) | 3100
12 | COc1cc2c(c(OC)c1)C1C3CCCC(C(=O)N1CC2)N3C(=O)C(=O)c1ccccc1O (centres undefined) | 238
13 | COc1ccc2c(c1)CCN1C(=O)C3CCCC(C21)N3S(=O)(=O)Nc1cc(F)c(F)cc1F (centres undefined) | 590
14 | COc1cc2c(c(OC)c1)C1C3CCCC(C(=O)N1CC2)N3C(=O)C(=O)c1ccco1 (centres undefined) | 279
15 | COc1cc2c(c(OC)c1)C1C3CCCC(C(=O)N1CC2)N3C(=O)N(c1ccc([N+](=O)[O-])cc1)c1ccc([N+](=O)[O-])cc1 (centres undefined) | 772
16 | COc1cc2c(c(OC)c1)C1C3CCCC(C(=O)N1CC2)N3C(=O)C(=O)c1cccc(Cl)c1Cl (centres undefined) | 282
17 | COc1ccc2c(c1)CCN1C(=O)C3CCCC(C21)N3S(=O)(=O)N1CCCCC1 (centres undefined) | 360
18 | COc1cc2c(c(OC)c1)C1C3CCCC(CN1CC2)N3C(=O)C(=O)c1cc(OC)c(OC)c(OC)c1 (centres undefined) | 31700
19 | COc1cc2c(c(OC)c1)C1C3CCCC(C(=O)N1CC2)N3C(=O)N(c1ccc(F)cc1F)c1ccc(F)cc1F (centres undefined) | 7000
20 | COc1cc2c(c(OC)c1)C1C3CCCC(C(=O)N1CC2)N3C(=O)C(=O)c1cc2ccccc2[nH]1 (centres undefined) | 2300
21 | COc1cc(C(=O)C(=O)N2C3CCCC2C2c4ccccc4CCN2C3=O)cc(OC)c1OC (centres undefined) | 217
22 | COc1cc2c(c(OC)c1)C1C3CCCC(C(=O)N1CC2)N3C(=O)N(c1ccccc1)c1ccccc1 (centres undefined) | 2700
23 | COc1ccc2c(c1)CCN1C(=O)C3CCCC(C21)N3S(=O)(=O)Nc1cc(OC)c(OC)c(OC)c1 (centres undefined) | 640
24 | COc1cccc2c1CCN1C(=O)C3CCCC(C21)N3C(=O)C(=O)c1cc(OC)c(OC)c(OC)c1 (centres undefined) | 105
25 | COc1cc2c(c(OC)c1)C1C3CCCC(C(=O)N1CC2)N3S(=O)(=O)c1ccc(Nc2cc(OC)c(OC)c(OC)c2)cc1 (centres undefined) | 288
26 | COc1cc2c(c(OC)c1)C1C3CCCC(C(=O)N1CC2)N3C(=O)C(=O)c1ccc(Cl)cc1Cl (centres undefined) | 586
27 | COc1cc2c(c(OC)c1)C1C3CCCC(C(=O)N1CC2)N3C(=O)N(c1ccccc1OC)c1ccccc1OC (centres undefined) | 357

More lines, in order of falling Ki, values ahead:

Row | Ki [nM] | Structure (SMILES)
28 | 210 | COc1ccc2c(c1)CCN1C(=O)C3CCCC(C21)N3S(=O)(=O)Nc1ccc(OC)nc1 (centres undefined)
29 | 208 | COc1cc2c(c(OC)c1)C1C3CCCC(C(=O)N1CC2)N3C(=O)C(O)c1ccc(Cl)cc1 (centres undefined)
30 | 201 | COc1cc(C(=O)C(=O)N2C3CCCC2C2c4c(F)cccc4CCN2C3=O)cc(OC)c1OC (centres undefined)
31 | 183 | COc1ccc2c(c1)CCN1C(=O)C3CCCC(C21)N3S(=O)(=O)Nc1ccc(F)nc1 (centres undefined)
32 | 171 | COc1cc(C(=O)C(=O)N2C3CCCC2C2c4ccc(Cl)cc4CCN2C3=O)cc(OC)c1OC (centres undefined)
33 | 156 | COc1cc2c(c(OC)c1)C1C3CCCC(C(=O)N1CC2)N3S(=O)(=O)c1ccc(-c2ccc(Cl)c(Cl)c2)cc1 (centres undefined)
34 | 153 | COc1cc2c(c(OC)c1)C1C3CCCC(C(=O)N1CC2)N3C(=O)C(=O)c1cc(Cl)ccc1Cl (centres undefined)
35 | 152 | COc1cc(C(=O)C(=O)N2C3CCCC2C2c4cccc(Cl)c4CCN2C3=O)cc(OC)c1OC (centres undefined)
36 | 150 | COc1ccc2c(c1)CCN1C(=O)C3CCCC(C21)N3S(=O)(=O)Nc1ccc(F)c(F)c1 (centres undefined)
37 | 143 | COc1ccc2c(c1)CCN1C(=O)C3CCCC(C21)N3C(=O)C(=O)c1cc(OC)c(OC)c(OC)c1 (centres undefined)
38 | 131 | COc1ccc(C(=O)C(=O)N2C3CCCC2C2c4c(cc(OC)cc4OC)CCN2C3=O)cc1 (centres undefined)
39 | 126 | COc1cc(C(=O)C(=O)N2C3CCCC2C2c4cc(Cl)ccc4CCN2C3=O)cc(OC)c1OC (centres undefined)
40 | 123 | CCc1ccc(C(=O)C(=O)N2C3CCCC2C2c4c(cc(OC)cc4OC)CCN2C3=O)cc1 (centres undefined)
41 | 123 | COc1ccc2c(c1)CCN1C(=O)C3CCCC(C21)N3S(=O)(=O)N1C[C@@H](C)O[C@@H](C)C1 (some centres undefined)
42 | 110 | COc1cc2c(c(OC)c1)C1C3CCCC(C(=O)N1CC2)N3C(=O)C(=O)c1ccc(F)cc1 (centres undefined)
43 | 110 | COc1cc2c(c(OC)c1)C1C3CCCC(C(=O)N1CC2)N3C(=O)C(=O)c1cccnc1 (centres undefined)

Row | Ki [nM] | Structure (SMILES)
44 | 107 | COc1cc2c(c(OC)c1)C1C3CCCC(C(=O)N1CC2)N3C(=O)C(=O)c1cccs1 (centres undefined)
45 | 104 | COc1cc2c(c(OC)c1)C1C3CCCC(C(=O)N1CC2)N3S(=O)(=O)c1cccc(C)c1 (centres undefined)
46 | 100 | COc1cc2c(c(OC)c1)C1C3CCCC(C(=O)N1CC2)N3C(=O)C(=O)c1ccccc1 (centres undefined)
47 | 92 | COc1cc2c(c(OC)c1)C1C3CCCC(C(=O)N1CC2)N3S(=O)(=O)c1ccc(Br)cc1 (centres undefined)
48 | 91 | COc1cc2c(c(OC)c1)C1C3CCCC(C(=O)N1CC2)N3C(=O)C(F)(F)c1cc(OC)c(OC)c(OC)c1 (centres undefined)
49 | 85 | COc1cc(C(=O)C(=O)N2C3CCCC2C2c4cc(C)ccc4CCN2C3=O)cc(OC)c1OC (centres undefined)
50 | 84 | COc1cc2c(c(OC)c1)C1C3CCCC(C(=O)N1CC2)N3S(=O)(=O)c1ccc(C)cc1 (centres undefined)
51 | 82 | COc1cc2c(c(OC)c1)C1C3CCCC(C(=O)N1CC2)N3S(=O)(=O)c1ccc(C#N)cc1 (centres undefined)
52 | 72 | COc1cc2c(c(OC)c1)C1C3CCCC(C(=O)N1CC2)N3C(=O)C(=O)c1ccc(Cl)cc1 (centres undefined)
53 | 71 | COc1cc2c(c(OC)c1)C1C3CCCC(C(=O)N1CC2)N3C(=O)C(=O)c1ccc(Br)cc1 (centres undefined)
54 | 69 | COc1cc2c(c(OC)c1)C1C3CCCC(C(=O)N1CC2)N3C(=O)C(=O)c1cc(OC)c(OC)c(OC)c1 (centres undefined)
55 | 60 | COc1cc2c(c(OC)c1)C1C3CCCC(C(=O)N1CC2)N3C(=O)C(=O)c1ccc(OC)c(OC)c1 (centres undefined)
56 | 54 | COc1cc2c(c(OC)c1)C1C3CCCC(C(=O)N1CC2)N3S(=O)(=O)c1cccc(Br)c1 (centres undefined)
57 | 46 | COc1cc2c(c(OC)c1)C1C3CCCC(C(=O)N1CC2)N3C(=O)C(=O)c1cccc(Cl)c1 (centres undefined)
58 | 34 | COc1cc(OC)cc(C(=O)C(=O)N2C3CCCC2C2c4c(cc(OC)cc4OC)CCN2C3=O)c1 (centres undefined)
59 | 34 | COc1cc2c(c(OC)c1)C1C3CCCC(C(=O)N1CC2)N3C(=O)C(=O)c1ccc(Cl)c(Cl)c1 (centres undefined)
